Measured values published in publication PMC12470716, “Inhibitory Effect of Fucoidan Analogs on Highly Metastatic Gastric Cancer Cells via Galectin-4 Inhibition” (International Journal of Molecular Sciences, 2025).

What was measured:
galectin-4 = molecular target: T1, galectin-4 (Homo sapiens, UniProt P56470); test: SPR (Biacore X100, galectin-4 immobilised on CM5), multi cycle; details: 25 °C, HBS-EP pH 7.4; LNT 31.3–500 μM; read-out: equilibrium binding constant
T1 construct: gene LGALS4; full-length, His-tagged (pQE-9), E. coli M15[pREP4], TALON purified; two CRDs (N-CRD and C-CRD), approx. 36 kDa; amine-coupled on CM5 chip for SPR
T1 sequence (P56470 1-323): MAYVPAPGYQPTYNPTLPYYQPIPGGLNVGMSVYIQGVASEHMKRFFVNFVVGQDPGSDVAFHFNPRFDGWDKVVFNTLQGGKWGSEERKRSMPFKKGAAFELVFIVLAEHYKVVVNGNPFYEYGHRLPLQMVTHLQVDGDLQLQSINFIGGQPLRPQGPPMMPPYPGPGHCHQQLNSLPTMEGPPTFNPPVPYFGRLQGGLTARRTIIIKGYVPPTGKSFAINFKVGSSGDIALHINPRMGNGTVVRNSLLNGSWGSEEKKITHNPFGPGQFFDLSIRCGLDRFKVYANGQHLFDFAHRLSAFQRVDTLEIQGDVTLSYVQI

NUGC4 WT = test: cells; design: ATP-based cell viability assay, growth inhibition of wild-type NUGC4 in FCS-free medium, 3 days; details: Homo sapiens, NUGC-4, 72 h; read-out: Growth inhibition (IC50) NUGC4 WT
Experimental: For growth inhibition experiments, MKN45 or NUGC4 cells were grown in 96-well plates at 5 × 10^3/well on the previous day, and the cell supernatant was discarded and washed once with phosphate-buffered saline (PBS). Fucoidan or fucoidan analog solutions diluted in FCS-free Advanced RPMI 1640 medium were added to the cells and cultured for another 3 days. Cell proliferation was measured using the ATP-based cell viability assay. Fucoidan analogs inhibited the proliferative ability of NUGC4 cells, but minimal inhibitory activity was observed against KO cells (Figure 3B).

MKN45 = test: cells; design: ATP-based cell viability assay, growth inhibition of MKN45 in FCS-free medium, 3 days; details: Homo sapiens, MKN-45, 72 h; read-out: Growth inhibition (IC50) MKN45
Experimental: For growth inhibition experiments, MKN45 or NUGC4 cells were grown in 96-well plates at 5 × 10^3/well on the previous day, and the cell supernatant was discarded and washed once with phosphate-buffered saline (PBS). Fucoidan or fucoidan analog solutions diluted in FCS-free Advanced RPMI 1640 medium were added to the cells and cultured for another 3 days. Cell proliferation was measured using the ATP-based cell viability assay. We first measured the inhibitory activities of all synthesized fucoidan analogs 1–14 to narrow down the candidate. […] Next, the inhibitory activity of fucoidan analogs on the proliferation of MKN45 cells was measured (Figure 3A). […] From the viewpoint of growth and binding inhibitory activities, we narrowed it down to 2, 3, 10, 12, and 14 for further investigation.

SMILES | Kd (galectin-4) | IC50 (NUGC4 WT) | IC50 (MKN45)
CC(=O)N[C@H]1[C@H](O[C@H]2[C@@H](O)[C@@H](CO)O[C@@H](O[C@H]3[C@H](O)[C@@H](O)C(O)O[C@@H]3CO)[C@@H]2O)O[C@H](CO)[C@@H](O)[C@@H]1O[C@@H]1O[C@H](CO)[C@H](O)[C@H](O)[C@H]1O (some centres unmarked) [LNT] | 200 µM | – | –
CCCCCCCCOC1O[C@@H](C)[C@@H](O)[C@@H](O[C@@H]2O[C@@H](C)[C@@H](O)[C@@H](O[C@@H]3O[C@@H](C)[C@@H](O)[C@@H](O[C@@H]4O[C@@H](C)[C@@H](O)[C@@H](OS(=O)(=O)O)[C@@H]4OS(=O)(=O)O)[C@@H]3OS(=O)(=O)O)[C@@H]2OS(=O)(=O)O)[C@@H]1OS(=O)(=O)O (some centres unmarked) [compound 3, fucoidan analog 3] | – | > 50 µM | > 100 µM
CCCCCCCCOC1OC(C)C(O)C(OC2OC(C)C(O)C(OC3OC(C)C(O)C(OC4OC(C)C(O)C(O)C4O)C3O)C2O)C1O (centres unmarked) [compound 4, 4] | – | – | > 100 µM
CCCCCCCCO[C@H]1O[C@@H](C)[C@@H](O[C@@H]2O[C@@H](C)[C@@H](O[C@@H]3O[C@@H](C)[C@@H](O[C@@H]4O[C@@H](C)[C@@H](OS(=O)(=O)O)[C@@H](OS(=O)(=O)O)[C@@H]4OS(=O)(=O)O)[C@@H](OS(=O)(=O)O)[C@@H]3OS(=O)(=O)O)[C@@H](OS(=O)(=O)O)[C@@H]2OS(=O)(=O)O)[C@@H](OS(=O)(=O)O)[C@@H]1OS(=O)(=O)O [compound 10, fucoidan analog 10] | – | < 50 µM | –
CCCCCCCCO[C@H]1O[C@@H](C)[C@@H](O[C@@H]2O[C@@H](C)[C@@H](O[C@@H]3O[C@@H](C)[C@@H](O[C@@H]4O[C@@H](C)[C@@H](O)[C@@H](O)[C@@H]4OS(=O)(=O)O)[C@@H](O)[C@@H]3OS(=O)(=O)O)[C@@H](O)[C@@H]2OS(=O)(=O)O)[C@@H](O)[C@@H]1OS(=O)(=O)O [compound 12, fucoidan analog 12] | – | > 50 µM | > 100 µM
CCCCCCCCOC1OC(C)C(OC2OC(C)C(OC3OC(C)C(OC4OC(C)C(O)C(O)C4O)C(O)C3O)C(O)C2O)C(O)C1O (centres unmarked) [compound 13, 13] | – | – | > 100 µM
